Assay results: patent US20230339991A1, “HYPOXIA-ACTIVATED DNA ALKYLATING AGENT AND MEDICAL USE THEREOF” (ASCENTAWITS PHARMACEUTICALS, LTD., priority 2020, published 2023)
Read-outs that look alike come from different tables or passages of the source.

Assays:
[1] = Liver microsome stability, rat; conditions: for Remaining percentage after 30 minutes: Rat
Description: (§1) 1) Two individual experiments were performed.
(§2) 1a) With NADPH: 10 μL of 20 mg/mL liver microsomes and 40 μL of 10 mM NADPH were added to the culture solution. The final concentrations of microsomes and NADPH were 0.5 mg/mL and 1 mM, respectively.
(§3) 1b) Without NADPH: 10 μL of 20 mg/mL liver microsomes and 40 μL of ultrapure H2O were added to the culture solution. The final concentration of microsomes was 0.5 mg/mL.
(§4) 3) 50 μL of aliquots were taken from the reaction solution at 0 min and 30 min. The reaction was terminated by adding 4 volumes of cold acetonitrile and four internal standards (IS, 100 nM alprazolam, 200 nM caffeine, 200 nM labetalol and 2 μM ketoprofen). The samples were centrifuged at 3, 220×g for 40 min. The aliquots of 100 μL of supernatant were mixed with 100 μL of ultrapure H2O and then used for LC-MS/MS analysis. All experiments were performed in duplicate.

H460 cancer cells = experiment: Hypoxia-dependent proliferation inhibition, H460, CTG; type: cell-based, human; conditions: for IC50: Homo sapiens, 3 h exposure
Excerpt: To determine the effect of the drug A according to the present invention on cancer cell proliferation, the antiproliferative activity of these compounds against the cancer cell was detected in a porous CTG-based assay. The effects of test compounds on cell proliferation under normoxic (21% O2) and hypoxic (<0.01% O2) conditions were compared. H460 cells were routinely cultured to 80%-90% of cell saturation, and when the number reached the requirement, resuspended with the corresponding culture medium, counted and prepared into cell suspension with appropriate density. The cell suspension was added to two types of 24-well plates, 495 μL per well with 1×10^4/well of cell density. 24-well plates inserted with glass insert were used for hypoxic tests, and ordinary plastic 24-well plates were used for normoxic tests. 5 μL of each compound was added to the hypoxic and normoxic reaction systems, respectively. After reacting for 3 hours in the hypoxic workstation or the normoxic incubator, the compounds were washed away using the culture medium and the system was placed in an incubator for another 72 hours. The final concentrations of each compound tested under normoxic conditions were as follows: TH-302 was 1000, 200, 40, 8, 1.6, 0.32 μM; test compound A (compound 32) was 1000, 200, 40, 8, 1.6, 0.32 μM; compound 26 was 500, 50, 5, 0.5, 0.05 μM. The final concentrations of each compound tested under hypoxic conditions were as follows: TH-302 was 10, 2, 0.4, 0.08, 0.016, 0.0032 μM; test compound A (compound 32) was 50, 5, 0.5, 0.05, 0.005, 0.0005 μM; compound 26 was 500, 50, 5, 0.5, 0.05 μM. After 72 hours of cell culture, 300 μL of culture medium was removed from each well of 24-well plate. 50 μL of CTG was added into each well. The plate was mixed and shaked for 2 min, and kept in dark for 15 minutes at room temperature. 100 μL per well of culture medium was transferred from 24-well plate to 96-well white plate, and the chemiluminescence signal value was read with Multifunctional enzyme marker with a reading time of 1000 ms. The IC50 was calculated using GraphPad Prism 5 software. […] The compound TH-302 (a hypoxic-activated prodrug entering phase III clinical studies, cas No. 918633-87-1, see the literature Sun J D, Liu Q, Wang J, et al. Selective tumor hypoxia targeting by hypoxia-activated prodrug TH-302 inhibits tumor growth in preclinical models of cancer. [J]. Clinical Cancer Research An Official Journal of the American Association for Cancer Research, 2012, 18(3): 758-70, structural formula is […]

[2] = Liver microsome stability, mouse; conditions: for Remaining percentage after 30 minutes: Mouse
Description: as §1, §2, §3, §4

hepatoma cell HepG2 = experiment: Hypoxia-dependent proliferation inhibition, HepG2; type: cell-based, human; conditions: for IC50: Homo sapiens; for HCR (hypoxic cytotoxicity ratio): IC50 ratio normoxia/N2
Excerpt: To determine the effect of the drug A according to the present invention on cancer cell proliferation, the antiproliferative activity of these compounds against the cancer cell was detected in a porous CTG-based assay. The effects of test compounds on cell proliferation under normoxic (21% O2) and hypoxic (<0.01% O2) conditions were compared. H460 cells were routinely cultured to 80%-90% of cell saturation, and when the number reached the requirement, resuspended with the corresponding culture medium, counted and prepared into cell suspension with appropriate density. The cell suspension was added to two types of 24-well plates, 495 μL per well with 1×10^4/well of cell density. 24-well plates inserted with glass insert were used for hypoxic tests, and ordinary plastic 24-well plates were used for normoxic tests. 5 μL of each compound was added to the hypoxic and normoxic reaction systems, respectively. After reacting for 3 hours in the hypoxic workstation or the normoxic incubator, the compounds were washed away using the culture medium and the system was placed in an incubator for another 72 hours. The final concentrations of each compound tested under normoxic conditions were as follows: TH-302 was 1000, 200, 40, 8, 1.6, 0.32 μM; test compound A (compound 32) was 1000, 200, 40, 8, 1.6, 0.32 μM; compound 26 was 500, 50, 5, 0.5, 0.05 μM. The final concentrations of each compound tested under hypoxic conditions were as follows: TH-302 was 10, 2, 0.4, 0.08, 0.016, 0.0032 μM; test compound A (compound 32) was 50, 5, 0.5, 0.05, 0.005, 0.0005 μM; compound 26 was 500, 50, 5, 0.5, 0.05 μM. After 72 hours of cell culture, 300 μL of culture medium was removed from each well of 24-well plate. 50 μL of CTG was added into each well. The plate was mixed and shaked for 2 min, and kept in dark for 15 minutes at room temperature. 100 μL per well of culture medium was transferred from 24-well plate to 96-well white plate, and the chemiluminescence signal value was read with Multifunctional enzyme marker with a reading time of 1000 ms. The IC50 was calculated using GraphPad Prism 5 software. […] The compound TH-302 (a hypoxic-activated prodrug entering phase III clinical studies, cas No. 918633-87-1, see the literature Sun J D, Liu Q, Wang J, et al. Selective tumor hypoxia targeting by hypoxia-activated prodrug TH-302 inhibits tumor growth in preclinical models of cancer. [J]. Clinical Cancer Research An Official Journal of the American Association for Cancer Research, 2012, 18(3): 758-70, structural formula is
Similarly, the above-mentioned three compounds were tested for the proliferation inhibition effect on hepatoma cell HepG2, and the results are shown in the following table 5.

[3] = Liver microsome stability, human; conditions: for Remaining percentage after 30 minutes: Human
Description: as §1, §2, §3, §4

[4] = Liver microsome stability, dog; conditions: for Remaining percentage after 30 minutes: Dog
Description: as §1, §2, §3, §4

[5] = NCI-H460, hypoxic (<0.01% O2), read-out: N2 IC50
[6] = N2 (hypoxic), read-out: IC50 N2
[7] = normoxia, read-out: IC50 Normoxia
[8] = NCI-H460, normoxic (21% O2), read-out: Normoxic IC50

| Structure (SMILES) | stability in liver microsomes ([1]; rat) | IC50 ratio: Normoxia/N2 (H460 cancer cells) | IC50 (H460 cancer cells; [5]) [µM] | stability in liver microsomes ([2]; mouse) | IC50 (hepatoma cell HepG2; [6]) [µM] | IC50 (hepatoma cell HepG2; [7]) [µM] | HCR (hypoxic cytotoxicity ratio) (hepatoma cell HepG2) | stability in liver microsomes ([3]; human) | stability in liver microsomes ([4]; canine) | Remaining percentage after 30 minutes ([1]; with NADPH) [%] | Remaining percentage after 30 minutes ([1]; without NADPH) [%] | Remaining percentage after 30 minutes ([2]; with NADPH) [%] | Remaining percentage after 30 minutes ([2]; without NADPH) [%] | Remaining percentage after 30 minutes ([3]; without NADPH) [%] | Remaining percentage after 30 minutes ([4]; with NADPH) [%] | Remaining percentage after 30 minutes ([4]; without NADPH) [%] | IC50 (H460 cancer cells; [8]) [µM] | Remaining percentage after 30 minutes ([3]; with NADPH, 2 μM) [%] |
| --- | --- | --- | --- | --- | --- | --- | --- | --- | --- | --- | --- | --- | --- | --- | --- | --- | --- | --- |
| O=[N+]([O-])c1ccc(C(OP(=O)(N2CC2)N2CC2)C(F)(F)F)c2ccccc12 (racemic) [Compound A] | not stable | 12.5 | 0.04 | relatively stable | 4.78 | 20.6 | 4.31 | relatively stable | not stable |  |  |  |  |  |  |  |  |  |
| O=[N+]([O-])c1ccc([C@@H](OP(=O)(N2CC2)N2CC2)C(F)(F)F)c2ccccc12 (single isomer, unassigned) [Compound C] |  |  |  |  |  |  |  |  |  | 71.05 | 111.15 | 102.89 | 103.07 | 82.15 | 31.16 | 101.62 |  |  |
| CC(OP(=O)(N1CC1)N1CC1)c1ccc([N+](=O)[O-])c2ccccc12 (stereo not drawn) [Compound D] |  | 20 | 0.04 |  | 1.5 | 16.7 | 11.13 |  |  | 6.81 | 103.00 | 32.37 | 96.37 | 107.67 | 9.97 | 99.10 | 0.8 | 74.28 |
| Cn1c(COP(=O)(NCCBr)NCCBr)cnc1[N+](=O)[O-] [TH-302, Evofosfamide] |  | 680 | 0.02 |  | 12.4 | 918 | 72.82 |  |  |  |  |  |  |  |  |  | 13.6 |  |
